Source: ChEMBL document CHEMBL1909046, “DrugMatrix in vitro pharmacology data”

Columns and labels:
[1] = DRUGMATRIX: Nicotinic Acetylcholine radioligand binding (ligand: [125I] Epibatidine); format: cell membranes, Membrane; settings: imr-32; Not Active = under 50% inhibition at 10 µM
[2] = molecular target: T1, Cholecystokinin receptor type A (Homo sapiens, UniProt P32238); format: cell membranes, Membrane; settings: 1321-n1; further: in other assays of this panel Not Active means under 50% inhibition at 10 µM
T1 sequence (P32238 whole entry): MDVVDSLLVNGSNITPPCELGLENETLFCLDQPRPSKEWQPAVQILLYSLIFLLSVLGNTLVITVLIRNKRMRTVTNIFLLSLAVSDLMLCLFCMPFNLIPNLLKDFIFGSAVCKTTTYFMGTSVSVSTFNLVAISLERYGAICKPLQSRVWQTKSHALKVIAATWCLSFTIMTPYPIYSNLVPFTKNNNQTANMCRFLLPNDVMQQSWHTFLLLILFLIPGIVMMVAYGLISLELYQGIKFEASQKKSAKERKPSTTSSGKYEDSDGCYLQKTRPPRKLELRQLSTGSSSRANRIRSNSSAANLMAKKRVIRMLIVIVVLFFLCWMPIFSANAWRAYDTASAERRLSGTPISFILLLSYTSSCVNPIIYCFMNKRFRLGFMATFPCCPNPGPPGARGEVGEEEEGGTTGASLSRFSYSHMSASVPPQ

[3] = molecular target: T2, Alpha-1B adrenergic receptor (Rattus norvegicus, UniProt P15823); assay: DRUGMATRIX: Alpha-1B adrenergic receptor radioligand binding (ligand: prazosin); format: cell membranes, Wistar, Liver, Membrane; settings: Not Active = under 50% inhibition at 10 µM
T2 sequence (P15823 whole entry): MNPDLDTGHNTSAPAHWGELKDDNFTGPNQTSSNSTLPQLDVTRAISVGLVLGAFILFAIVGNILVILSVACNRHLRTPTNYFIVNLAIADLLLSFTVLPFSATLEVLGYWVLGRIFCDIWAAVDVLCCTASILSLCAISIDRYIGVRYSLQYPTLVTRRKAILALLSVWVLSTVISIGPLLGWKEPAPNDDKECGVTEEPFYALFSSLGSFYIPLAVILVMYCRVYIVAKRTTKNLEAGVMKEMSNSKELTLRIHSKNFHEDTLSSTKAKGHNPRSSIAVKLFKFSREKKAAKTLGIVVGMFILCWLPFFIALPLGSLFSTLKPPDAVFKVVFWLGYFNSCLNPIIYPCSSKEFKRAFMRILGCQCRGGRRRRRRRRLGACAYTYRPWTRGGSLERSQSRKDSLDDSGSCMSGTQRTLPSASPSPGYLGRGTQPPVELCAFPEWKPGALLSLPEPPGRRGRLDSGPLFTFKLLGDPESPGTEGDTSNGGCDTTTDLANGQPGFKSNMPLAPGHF

[4] = molecular target: Aldo-keto reductase family 1 member B1 (Rattus norvegicus, UniProt P07943); assay: biochemical; format: tissue-based, Lens of camera-type eye;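 further: inhibition of aldose reductase enzyme activity, measured with DL-glyceraldehyde as the substrate; in other assays of this panel Not Active means under 50% inhibition at 10 µM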
[5] = DRUGMATRIX: Phosphodiesterase PDE3 enzyme inhibition (substrate: [3H]cAMP + cAMP); format: tissue-based, Homo sapiens; settings: platelet; Not Active = under 50% inhibition at 10 µM
[6] = molecular target: T3, Nitric oxide synthase, inducible (Mus musculus, UniProt P29477); set-up: species or system Escherichia coli;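 further: inhibition of iNOS enzyme activity measured with L-arginine as substrate; in other assays of this panel Not Active means under 50% inhibition at 10 µM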
T3 sequence (P29477 whole entry): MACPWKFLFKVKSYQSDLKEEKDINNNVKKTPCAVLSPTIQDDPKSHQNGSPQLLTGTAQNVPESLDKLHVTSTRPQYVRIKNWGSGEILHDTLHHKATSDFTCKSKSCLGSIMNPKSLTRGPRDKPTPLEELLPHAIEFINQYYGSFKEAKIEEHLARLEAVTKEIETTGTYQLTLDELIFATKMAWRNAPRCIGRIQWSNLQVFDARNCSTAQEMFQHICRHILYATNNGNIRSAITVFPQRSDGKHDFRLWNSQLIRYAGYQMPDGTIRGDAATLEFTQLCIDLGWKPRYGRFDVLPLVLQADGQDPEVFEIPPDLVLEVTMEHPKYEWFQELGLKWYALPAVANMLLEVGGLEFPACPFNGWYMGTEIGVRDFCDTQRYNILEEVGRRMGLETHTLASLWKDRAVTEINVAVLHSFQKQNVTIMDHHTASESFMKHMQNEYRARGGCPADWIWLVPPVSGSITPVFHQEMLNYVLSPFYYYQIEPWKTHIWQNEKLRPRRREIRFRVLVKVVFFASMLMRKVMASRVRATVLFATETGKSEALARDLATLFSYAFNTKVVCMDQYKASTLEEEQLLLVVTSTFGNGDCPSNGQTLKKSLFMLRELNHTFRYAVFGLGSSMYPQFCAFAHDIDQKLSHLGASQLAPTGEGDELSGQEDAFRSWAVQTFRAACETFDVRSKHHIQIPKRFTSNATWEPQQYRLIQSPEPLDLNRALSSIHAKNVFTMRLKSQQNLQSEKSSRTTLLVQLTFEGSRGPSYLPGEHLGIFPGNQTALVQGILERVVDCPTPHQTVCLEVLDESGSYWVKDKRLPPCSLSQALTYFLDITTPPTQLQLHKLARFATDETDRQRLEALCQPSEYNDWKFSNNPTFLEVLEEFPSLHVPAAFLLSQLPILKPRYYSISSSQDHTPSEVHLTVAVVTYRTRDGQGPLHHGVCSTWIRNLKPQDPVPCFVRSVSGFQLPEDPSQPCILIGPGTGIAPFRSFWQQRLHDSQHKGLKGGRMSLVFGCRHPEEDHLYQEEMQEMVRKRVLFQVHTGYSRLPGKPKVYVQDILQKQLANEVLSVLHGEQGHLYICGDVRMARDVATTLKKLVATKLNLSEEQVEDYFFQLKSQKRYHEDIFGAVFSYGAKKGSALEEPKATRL

[7] = molecular target: Epidermal growth factor receptor (Homo sapiens, UniProt P00533); assay: DRUGMATRIX: Protein Tyrosine Kinase, EGF Receptor enzyme inhibition (substrate: Poly(Glu:Tyr)); format: cell-based, Insect cells; settings: insect cells; Not Active = under 50% inhibition at 10 µM
Sequence of Epidermal growth factor receptor (P00533 whole entry): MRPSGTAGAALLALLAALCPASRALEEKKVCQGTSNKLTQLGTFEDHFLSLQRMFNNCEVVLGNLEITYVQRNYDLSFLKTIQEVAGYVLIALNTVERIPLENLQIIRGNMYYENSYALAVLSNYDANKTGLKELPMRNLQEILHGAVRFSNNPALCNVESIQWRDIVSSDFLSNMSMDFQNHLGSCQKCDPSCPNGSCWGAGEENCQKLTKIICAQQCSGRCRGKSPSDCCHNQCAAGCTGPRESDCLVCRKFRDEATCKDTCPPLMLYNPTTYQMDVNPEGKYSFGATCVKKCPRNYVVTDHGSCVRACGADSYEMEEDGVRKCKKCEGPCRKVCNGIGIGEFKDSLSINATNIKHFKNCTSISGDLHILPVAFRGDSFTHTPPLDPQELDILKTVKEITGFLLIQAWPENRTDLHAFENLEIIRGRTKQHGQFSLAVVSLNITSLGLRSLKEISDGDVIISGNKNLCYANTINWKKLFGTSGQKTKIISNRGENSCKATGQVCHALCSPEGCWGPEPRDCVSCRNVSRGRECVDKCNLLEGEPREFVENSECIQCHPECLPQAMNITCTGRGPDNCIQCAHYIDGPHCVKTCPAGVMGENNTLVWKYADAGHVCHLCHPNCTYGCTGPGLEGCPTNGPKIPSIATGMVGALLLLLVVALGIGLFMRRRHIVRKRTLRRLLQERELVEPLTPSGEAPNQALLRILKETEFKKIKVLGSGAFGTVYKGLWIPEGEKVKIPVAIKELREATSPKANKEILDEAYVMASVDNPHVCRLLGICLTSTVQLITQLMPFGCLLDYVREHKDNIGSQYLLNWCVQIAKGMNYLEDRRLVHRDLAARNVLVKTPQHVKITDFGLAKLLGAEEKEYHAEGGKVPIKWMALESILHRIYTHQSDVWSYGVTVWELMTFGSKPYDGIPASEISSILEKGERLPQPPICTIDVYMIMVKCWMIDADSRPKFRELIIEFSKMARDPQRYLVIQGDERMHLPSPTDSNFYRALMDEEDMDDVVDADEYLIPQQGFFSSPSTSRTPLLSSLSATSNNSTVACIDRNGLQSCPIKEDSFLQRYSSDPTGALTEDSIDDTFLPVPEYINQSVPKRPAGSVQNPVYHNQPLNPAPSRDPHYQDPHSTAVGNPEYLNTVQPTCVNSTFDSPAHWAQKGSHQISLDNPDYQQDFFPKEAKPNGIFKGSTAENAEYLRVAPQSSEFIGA

Row | Structure (SMILES) | IC50 [1] | Ki [1] | IC50 [2] | IC50 [3] | IC50 [4] | IC50 [5] | Ki [5] | IC50 [6] | IC50 [7] | IC50 ([3]; read-out: IC50) [nM] | Ki ([3]; read-out: Ki) [nM]
1 | Nn1nnc2ccccc21 | Not Active | Not Active | Not Active | Not Active | Not Active | Not Active | Not Active | Not Active | Not Active | – | –
2 | CC[C@]1(O)CC[C@H]2[C@@H]3CCC4=CCCC[C@@H]4[C@H]3CC[C@@]21C | Not Active | Not Active | Not Active | Not Active | Not Active | Not Active | Not Active | Not Active | Not Active | – | –
3 | N[C@@H](Cc1ccc(F)cc1)C(=O)O | Not Active | Not Active | Not Active | Not Active | Not Active | Not Active | Not Active | Not Active | Not Active | – | –
4 | CCOC(=O)[C@H](CCc1ccccc1)N[C@@H](C)C(=O)N1Cc2ccccc2C[C@H]1C(=O)O | Not Active | Not Active | Not Active | Not Active | Not Active | Not Active | Not Active | Not Active | Not Active | – | –
5 | O=C(c1ccccc1Cl)N1CCC(Cc2ccccc2)CC1 | Not Active | Not Active | Not Active | Not Active | Not Active | Not Active | Not Active | Not Active | Not Active | – | –
6 | CCOC(=O)[C@H](CCc1ccccc1)N[C@@H](C)C(=O)N1CCC[C@H]1C(=O)O | Not Active | Not Active | Not Active | Not Active | Not Active | Not Active | Not Active | Not Active | Not Active | – | –
7 | Clc1cc2c(cc1Cl)Oc1cc(Cl)c(Cl)cc1O2 [2,3,7,8-TETRACHLORODIBENZO-P-DIOXIN] | Not Active | Not Active | Not Active | Not Active | Not Active | Not Active | Not Active | Not Active | Not Active | – | –
8 | C=C1/C(=C\C=C2/CCC[C@]3(C)[C@@H]([C@H](C)CCCC(C)C)CC[C@@H]23)C[C@@H](O)C[C@@H]1O [ALFACALCIDOL] | Not Active | Not Active | Not Active | Not Active | Not Active | Not Active | Not Active | Not Active | Not Active | – | –
9 | CCCCCC[C@H]1C(=O)O[C@H](C)[C@H](NC(=O)c2cccc(NC=O)c2O)C(=O)O[C@@H](C)[C@@H]1OC(=O)CC(C)C [ANTIMYCIN A] | Not Active | Not Active | Not Active | Not Active | Not Active | Not Active | Not Active | Not Active | Not Active | – | –
10 | C[C@@H]1CC[C@H]2[C@@H](C)C(=O)O[C@@H]3O[C@@]4(C)CC[C@@H]1[C@]32OO4 [ARTEMISININ] | Not Active | Not Active | Not Active | Not Active | Not Active | Not Active | Not Active | Not Active | Not Active | – | –
11 | CO[C@H]1[C@@H](O)[C@H](N)[C@@H](O[C@H]2O[C@H]([C@H](C)N)CC[C@H]2N)[C@H](O)[C@@H]1N(C)C(=O)CN [ASTROMICIN] | Not Active | Not Active | Not Active | Not Active | Not Active | Not Active | Not Active | Not Active | Not Active | – | –
12 | [N-]=[N+]=CC(=O)OC[C@H](N)C(=O)O [AZASERINE] | Not Active | Not Active | Not Active | Not Active | Not Active | Not Active | Not Active | Not Active | Not Active | – | –
13 | CC[C@H]1OC(=O)[C@H](C)[C@@H](O[C@H]2C[C@@](C)(OC)[C@@H](O)[C@H](C)O2)[C@H](C)[C@@H](O[C@@H]2O[C@H](C)C[C@H](N(C)C)[C@H]2O)[C@](C)(O)C[C@@H](C)CN(C)[C@H](C)[C@@H](O)[C@]1(C)O [AZITHROMYCIN] | Not Active | Not Active | Not Active | Not Active | Not Active | Not Active | Not Active | Not Active | Not Active | – | –
14 | CC(C)(C)c1ccc(S(=O)(=O)/C=C/C#N)cc1 [BAY-11-7085] | Not Active | Not Active | Not Active | Not Active | Not Active | Not Active | Not Active | Not Active | Not Active | – | –
15 | CCc1oc2ccccc2c1C(=O)c1cc(Br)c(O)c(Br)c1 [BENZBROMARONE] | Not Active | Not Active | Not Active | Not Active | Not Active | Not Active | Not Active | Not Active | Not Active | – | –
16 | O=c1cc(-c2ccccc2)oc2ccc3ccccc3c12 [BETA-NAPHTHOFLAVONE] | Not Active | Not Active | Not Active | Not Active | Not Active | Not Active | Not Active | Not Active | Not Active | – | –
17 | CC(C)C[C@H]1C(=O)N2CCC[C@H]2[C@]2(O)O[C@](NC(=O)[C@@H]3C=C4c5cccc6[nH]c(Br)c(c56)C[C@H]4N(C)C3)(C(C)C)C(=O)N12 [BROMOCRIPTINE] | Not Active | Not Active | Not Active | – | Not Active | Not Active | Not Active | Not Active | Not Active | 3.55 | 1.96
18 | Cc1cnc(C(=O)NCCc2ccc(S(=O)(=O)NC(=O)NC3CCCCC3)cc2)cn1 [GLIPIZIDE] | Not Active | Not Active | Not Active | Not Active | Not Active | Not Active | Not Active | – | Not Active | – | –
19 | N=C(N)N/N=C/c1c(Cl)cccc1Cl [GUANABENZ] | Not Active | Not Active | Not Active | – | Not Active | Not Active | Not Active | Not Active | Not Active | – | –
